The text below walks through data of patent US20250177405A1, “METHODS OF TREATING NEUROLOGICAL AND CARDIOVASCULAR CONDITIONS” (ASTROCYTE PHARMACEUTICALS, INC., priority 2021, published 2025).

Series [1] is described as follows: pre-efficacy pharmacokinetic study, intravenous bolus/constant rate infusion in tMCAO cynomolgus monkeys. Conditions: tMCAO (n = 1); for Kp at 22 h: cynomolgus monkey, CSF/plasma, intravenous, read-out: CSF/Plasma At 22-hour End of Dosing. The format is in vivo, cynomolgus monkey. As to the method: Macaques received a bolus dose of vehicle (40% PEG400 in 0.9% saline) or I-1 into a saphenous vein 2 h after occlusion (2 h prior to restoration of MCA blood flow), followed immediately by a 22 h intravenous infusion. This dosing regimen was designed to rapidly achieve and maintain pre-determined plasma and cerebrospinal fluid (CSF) steady-state concentrations of I-1 based on its pharmacokinetics previously determined in näive and MCA occluded macaques (Tables A-C below).
We then proceeded to our key preclinical stroke efficacy model in nonhuman primates. Pre-efficacy pharmacokinetic studies obtained plasma and CSF pharmacokinetic data. The I-1 CSF concentrations were combined with receptor affinity data to estimate receptor occupancy, and the combination of CSF concentrations and associated receptor occupancies were used to set dose regimens for the efficacy study.

Series [2] is described as follows: physiological parameter assessment during tMCAO study. The format is in vivo, Macaca fascicularis. As to the method:
Body weight, core body temperature, mean arterial blood pressure (MABP), heart rate, pO2, pCO2, sO2 and blood pH were assessed prior to and after tMCAO at designated intervals in relation to reported normal physiological ranges for each parameter (references 22-23).

A short description of series [3]: plasma and brain unbound fractions of I-1 in nonhuman primates. The format is in vitro ADME. The note with it: nonhuman primate, Normal NHP (n = 3).
Series [4] relates to cynomolgus monkey model of transient middle cerebral artery occlusion (tMCAO). The series can be described thus: Neurologic Deficit Score (NDS) after tMCAO. The format is in vivo, Macaca fascicularis. The note with it: study Days 1 to 5, I-1-treated composite versus vehicle, p=0.11. The source says: Twenty-four hours and 5 days after occlusion, neurologic deficits were scored using the Neurologic Deficits Score (NDS) as described elsewhere (reference 25). The NDS was considered as a secondary efficacy endpoint.

[5] abbreviates: bolus 0.11 mg/kg / infusion 0.0582 mg/kg/hr.
Where [6] appears, read: bolus 1.7 mg/kg / infusion 0.9 mg/kg/hr.
[7] abbreviates: bolus 5.2 mg/kg / infusion 2.76 mg/kg/hr.

Each structure is given as a SMILES string. Where two headings read alike, the source gives them in different places.

A word on the fraction unbound: it is the share of the substance not bound to proteins or other matrix.

Turning to `CSc1nc(N)c2ncn([C@H]3C(O)C(O)[C@]4(CO)C[C@H]34)c2n1` (stereo in doubt) [Compound I-1], the Kp at 22 h in series [1] (setting [5]) worked out at 0.094; in series [1] (setting [6]) it was 0.084; in series [1] (setting [7]) it was 0.065. Besides, the “Actual Time-Averaged Steady-State [Plasma]” value in series [1] (setting [5]) came out at 25 ng/mL; in series [1] (setting [6]) it was 363 ng/mL; in series [1] (setting [7]), 1812 ng/mL. Moreover, the “Predicted Steady-State [Plasma]” value in series [1] (setting [5]) was 35 ng/mL; in series [1] (setting [6]), 540 ng/mL; in series [1] (setting [7]), 1660 ng/mL. Moreover, the “physiological parameters versus vehicle-treated group” value in series [2] (baseline and during the study period) was “no clinically relevant differences”. In addition, in series [2] (systemic I-1 administration, tMCAO macaques), the “MABP or heart rate” value is recorded as “did not result in significant alterations”. Besides, the fraction unbound in series [3] (brain, read-out: Brain Unbound Fraction) was found to be 0.56 ± 0.05; in series [3] (plasma, read-out: Plasma Unbound Fraction) it was 0.26 ± 0.05. In addition, the “neurological function (NDS) change” value in series [4] is reported as “improved but statistically non-significant”.
